Test results: patent US12191014B1, “Personal analysis and chronotherapy” (CERNER INNOVATION, INC., priority 2013, dated 2025)

Key:
[1] = tested on: blood pressure of patients; conditions: cited from earlier work; for effect on asleep versus awake SBP and DBP means: ACEI, evening or bedtime administration; for therapeutic effect on sleeping BP: ARB, bedtime in comparison with morning ingestion schedule
hypertensive subjects = experiment: 32-day losartan administration-time study with NIBP/SBP time series and spectral analysis; type: in vivo, human
Description: Because dipping status is determined by (a) sleep BP and (b) awake BP, it might be expected that the 2 determinants would have equal weight. […] Although there is evidence that an extreme dipping pattern may lead to nocturnal cerebral ischemia, there is also evidence that nondippers are at greater risk for cardiovascular morbidity than dippers, both for cardiovascular events and for progression of kidney disease. […] This is exactly what we have observed with losartan.
To illustrate the advantages of the present technology, a, a series of alternate schedules for administering a single, strong 100 mg oral dose of the rapidly-absorbed angiotensin receptor blocker, losartan, were explored (03:00; 09:00; 21:00; etc.). Subjects […] informed consent according to applicable U.S. law and regulations. Baseline drug-holiday NIBP measurements were collected in each subject for a period of 32 days. Subjects who had other comorbid health conditions besides hypertension were excluded, as were subjects who required two or more antihypertensive medications for blood pressure control.
Under the experimental protocol, a two-week wash-out interval was interposed between a 32-day treatment period with one administration time and the next 32-day period. Subjects were randomized as to which administration time sequence.
All of the 32-day timing regimens were monitored so as to establish administration timing compliance with a timing precision of +15 min. […]
Records were randomly selected from a patient health records data warehouse, which is derived from Cerner electronic health record (EHR) from 100% of episodes of care that are incident upon the participating health institutions. […] The SBP data is cast into the form of a time series, and analyzed the sequences using the open-source R statistical packages psd, seewave, and tuneR. […]

blood pressure patient = experiment: Example 1: evaluation pack trial of Losartan formulations against diagnostic targets; type: in vivo, human
Description: Example 1: A blood pressure patient is currently medicated, but appears to be medicated at an insufficient level. For example, the patient has been taking 50 mg of Losartan at various ingestion times, but has experienced some severe headaches and nose bleeds in the afternoon particularly on stressful days.
In an embodiment, the evaluation package includes four different formulations labeled A, B, 3A, and 5A arranged in separable columns of constant medication 1027, 1028, 1025, 1030, and 1010, that may be separated by manually tearing package 1000 along perforated divisions 1096, 1097, 1098, and 1099. In an embodiment, dose pack 1000 is formed by selectively applying an adhesive to a foil backing layer to adhere the foil to transparent plastic front layer 1012 containing pills such as 1013 as shown in FIG. 10. In an embodiment, a label such as “5A” is provided on the dose itself such as label 1015 on pill 1013 as viewable in dose display container 1014, and/or on the packaging in label 1011 of constant formulation dosepack represented in column 1010. Advantageously, a patient tears along a perforation 1096 while taking dose A, and only need carry a single column such as 1027 while taking an “A” formulation dose. Similarly columns 1026, 1025, 1030 and 1010 are separable by perforations 1096, 1097, 1098 and 1099. An embodiment of a constant formulation dose pack has 32 cycles of dosage. An embodiment of a constant formulation dose pack has 10 cycles of dosage.
In an embodiment, the “A” formulation corresponds to a pulsatile application of 100 mg Losartan that applies medication nominally 20 minutes after ingestion, the “3A” formulation delays application of 100 mg of Losartan to 3 hours after ingestion. The “5A” formulation delays application of 100 mg of Losartan to 5 hours after ingestion. The “B” formulation is 5 mg amlodipine besylate that applies medication approximately 5 hours after ingestion. In an embodiment the dose sequence spectrum is chosen to center the medication application around a typical peak level. For example, with blood pressure medicine application, a peak plasma level between midnight and 6 a.m. would provide dosage delays centered about 3 a.m. for a patient who is thought to be a normal dipper. An embodiment puts at least one dosage application time in a period of normal peak, for example, between midnight and 6 a.m. for blood pressure application. In an embodiment, different dose levels are provided, such as a trial with 50 mg Losartan, or 150 mg Losartan for the same application time.
Turning now to FIG. 2, there is depicted in 100 a method for a computer to execute a method of personal health evaluation. At 205, a patient manager such as 140 is configured through a clinician evaluation template to present results to the patient on patient interface 141 after the clinician has released the information to the patient for viewing, explanation. In an embodiment a template includes a monitor identifier, a patient identifier, such as social security number and/or full name and zip code, and an identification code for the dose pack such as product ID code “AB27YAM” shown in identifier 1050. In an embodiment the template includes a set of patient instructions to guide patient through the use of the monitor device. In an embodiment, the patient is instructed to wear the monitor continuously with unmonitored stretches of no greater than a half an hour. […] In an embodiment, the template includes information such as gender (male or female), weight, height, body mass index, other conditions, other mediations, patient history, patient age, a diagnostic target, a clinical input to be monitored, a period statistic to be measured, a period variability measure to be evaluated, a variation, etc. […]

CCOC(=O)[C@H](CCc1ccccc1)N[C@@H](C)C(=O)N1Cc2ccccc2C[C@H]1C(=O)O [quinapril]
effect on asleep versus awake SBP and DBP means [1]: more marked effect on the asleep than awake

CCOC(=O)[C@H](CCc1ccccc1)N[C@@H](C)C(=O)N1[C@H](C(=O)O)C[C@H]2CCCC[C@@H]21 [trandolapril]
effect on asleep versus awake SBP and DBP means [1]: more marked effect on the asleep than awake

CCC[C@H](N[C@@H](C)C(=O)N1[C@H](C(=O)O)C[C@@H]2CCCC[C@@H]21)C(=O)OCC [perindopril]
effect on asleep versus awake SBP and DBP means [1]: more marked effect on the asleep than awake

CCOC(=O)[C@H](CCc1ccccc1)N[C@@H](C)C(=O)N1[C@H](C(=O)O)C[C@@H]2CCC[C@@H]21 [ramipril]
effect on asleep versus awake SBP and DBP means [1]: more marked effect on the asleep than awake

CCOC(=O)[C@H](CCc1ccccc1)N[C@@H](C)C(=O)N1CC2(C[C@H]1C(=O)O)SCCS2 [spirapril]
effect on asleep versus awake SBP and DBP means [1]: more marked effect on the asleep than awake

CCCc1nc2c(C)cc(-c3nc4ccccc4n3C)cc2n1Cc1ccc(-c2ccccc2C(=O)O)cc1 [telmisartan]
therapeutic effect on sleeping BP [1]: greater therapeutic effect on sleeping BP

CCCCC1=NC2(CCCC2)C(=O)N1Cc1ccc(-c2ccccc2-c2nnn[nH]2)cc1 [irbesartan]
therapeutic effect on sleeping BP [1]: greater therapeutic effect on sleeping BP

C[C@H](CS)C(=O)N1CCC[C@H]1C(=O)O [captopril]
effect on asleep versus awake SBP and DBP means [1]: more marked effect on the asleep than awake

NCCCC[C@H](N[C@@H](CCc1ccccc1)C(=O)O)C(=O)N1CCC[C@H]1C(=O)O [lisinopril]
effect on asleep versus awake SBP and DBP means [1]: more marked effect on the asleep than awake

CCCCC(=O)N(Cc1ccc(-c2ccccc2-c2nnn[nH]2)cc1)[C@H](C(=O)O)C(C)C [valsartan]
therapeutic effect on sleeping BP [1]: greater therapeutic effect on sleeping BP

CCOC(=O)[C@H](CCc1ccccc1)N[C@@H](C)C(=O)N1CCC[C@H]1C(=O)O [enalapril]
effect on asleep versus awake SBP and DBP means [1]: more marked effect on the asleep than awake

C[C@H](CSC(=O)c1ccccc1)C(=O)N1C[C@@H](Sc2ccccc2)C[C@H]1C(=O)O [zofenopril]
effect on asleep versus awake SBP and DBP means [1]: more marked effect on the asleep than awake

CCOC(=O)[C@H](CCc1ccccc1)N[C@H]1CCc2ccccc2N(CC(=O)O)C1=O [benazepril]
effect on asleep versus awake SBP and DBP means [1]: more marked effect on the asleep than awake

CCCCc1nc(Cl)c(CO)n1Cc1ccc(-c2ccccc2-c2nn[nH]n2)cc1 [losartan]
reduction in average blood pressure (hypertensive subjects; 100 mg oral dose, all dosing schedules (03:00; 09:00; 21:00), 32-day treatment periods): reduction in average blood pressure | phase-slips between circadian BP and drug administration (hypertensive subjects; 100 mg, 21:00 administration time): occasionally detected | normalization of dipping pattern (hypertensive subjects; administration such that peak plasma levels occur prior to midnight or prior to 06:00): can normalize extreme dippers, non-dippers, and risers and convert them to normal dippers | dipping pattern (blood pressure patient; 100 mg at 21:00): achieved a normal dipping pattern | entropy relative to untreated regimen (blood pressure patient; 100 mg at 21:00): greatly improved entropy | entropy versus target (blood pressure patient; 100 mg at 21:00): acceptable entropy | max SBP versus target (blood pressure patient; 100 mg at 21:00): unacceptable max SBP | range of SBP versus target (blood pressure patient; 100 mg at 21:00): unacceptable range | rolloff (blood pressure patient; 100 mg at 21:00): acceptable rolloff improvement | significance versus target (blood pressure patient; 100 mg at 21:00): acceptable significance | stability of rhythm (blood pressure patient; 100 mg at 21:00): improved stability of rhythm | desired targets met (blood pressure patient; 100 mg at 21:00, compared with untreated regimen): 5 of 7 | therapeutic effect on sleeping BP [1]: greater therapeutic effect on sleeping BP
